Among the data in the METLIN SMRT retention time set (Domingo-Almenara et al. 2019) are RP-LC retention time values, retold here.

The series is described as follows: gradient 5% acetonitrile 3 min, to 50% in 2 min, to 85% in 15 min, held 3 min, 100 µL/min. The settings on record: column: Zorbax Extend-C18 2.1 x 50 mm; eluents: water / acetonitrile, 0.1% formic acid. Summed up:
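Pure standards were run in mixtures of ~100 molecules by HPLC coupled to a quadrupole time-of-flight mass spectrometer. The column was a Zorbax Extend-C18 (2.1 × 50 mm, 1.8 μm) at 100 μL/min, with water and acetonitrile each containing 0.1% formic acid, in positive and negative ionization mode. Dead and dwell volumes were 40 μL and 900 μL. Retention time was taken from computationally picked adduct peaks, each manually inspected, with data collected over 3 months.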
`NC(=O)C1CCN(C(=O)Cc2csc(NC(=O)c3ccco3)n2)CC1`: the RP-LC retention time came to 572 s. With `COc1cccc(NC(=O)Cn2nc(C(=O)N3CCCC3)c3ccccc32)c1`, the RP-LC retention time was determined as 792 s. `CC(C)n1cnc(S(=O)(=O)N2CCC(C(=O)Nc3ccc(F)cc3F)CC2)c1` showed an RP-LC retention time of 728 s. In turn, `C=CCSc1n[nH]c(-c2cccs2)n1` registered an RP-LC retention time of 792 s.

For the molecule `Cc1nnc(C(=O)Nc2cccc(C(=O)NCCc3c[nH]c4ccc(Cl)cc34)c2)s1`, the RP-LC retention time was 847 s. In turn, `Nc1cc(C2CCN(S(=O)(=O)c3cccc(Cl)c3)CC2)no1` gave an RP-LC retention time of 792 s. `COc1ccc(-c2noc(COC(=O)C3=CN(Cc4ccccc4)S(=O)(=O)N=C3C)n2)cc1` displayed an RP-LC retention time of 1090 s. To `COC(=O)c1ccc2c(=O)n(-c3ccc(OC)c(OC)c3)c(N3CCCC3)nc2c1` belongs 751 s; to `CNC(=O)C1CN(C(=O)c2cccc(C(F)(F)F)c2)CC12CCCC2` (stereo not given), 749 s. For `COc1ccc2c3c([nH]c2c1)[C@H](C=C(C)C)N1C(=O)[C@@H]2CCCN2C(=O)[C@@H]1C3`, the RP-LC retention time was 871 s. To `COCc1cn(C2CN(C(=O)C3(c4ccccc4)CC3)C2)nn1` belongs 688 s; to `CCN1CCN(C(=O)CN2c3ccc(Br)cc3-c3ccccc3S2(=O)=O)CC1`, 670 s. On to `O=C(c1cn2c(n1)COCC2)N1CCN(c2ccc(Cl)cc2)CC1`, for which the RP-LC retention time stood at 699 s. As for `Cc1ccc(S(=O)(=O)N2CCC(CN3CCCC(C)C3)CC2)cc1F` (stereo not given), the RP-LC retention time amounted to 702 s.

In turn, `N#Cc1cccc(NC(=O)Cn2cccc(-c3nc(-c4ccc(F)cc4)no3)c2=O)c1` gave an RP-LC retention time of 859 s.

`COc1ccc(-c2nc(NCCCN3CCN(C)CC3)c3ccccc3n2)cc1` came in with an RP-LC retention time of 828 s. `COc1cccc(C(=O)Nc2cc(-c3cccnc3)no2)c1`: the RP-LC retention time was 730 s.

In turn, `CCCC(=O)Nc1nc(-c2ccc(Br)s2)cs1` registered an RP-LC retention time of 993 s. As to `Cc1ccc(CNC(=O)Cn2c(=O)nc(N3CCC(C)CC3)c3ccccc32)cc1`, the RP-LC retention time was determined as 860 s. `Cc1cc(C)cc(NC2C=CS(=O)(=O)C2)c1` (stereo not given) yielded an RP-LC retention time of 760 s. To `COc1ccccc1Nc1c(-c2ccc(Cl)cc2)nc2cnccn12` belongs 1020 s; to `Cc1ccc(C)c(-c2cc3c(=O)n(Cc4nc(-c5ccc(Cl)cc5)no4)ncn3n2)c1`, 1220 s; to `COCCNc1c(-c2ccc(OC)cc2)nc2sc(C(=O)N(C)C)c(C)n12`, 698 s. For `COc1cc(C(=O)Nc2cccc(-c3cn4ccsc4n3)c2)c([N+](=O)[O-])cc1OC`, the RP-LC retention time amounted to 658 s. For the molecule `NC(=O)c1cc(C(N)=O)nc(Cl)n1`, the RP-LC retention time was 604 s. `CN1c2cc(C(=O)Nc3cccc(C(F)(F)F)c3)ccc2C(=O)N2CCCCC21` (stereo not given) returned an RP-LC retention time of 930 s. In the case of `COC(=O)c1c(NCc2ccccc2F)c2cccc(Cl)c2[nH]c1=O`, the RP-LC retention time stood at 808 s. With `COc1cc(NC(=O)Cn2cccc2-c2nnc(C3CCC3)o2)cc(OC)c1`, the RP-LC retention time came to 876 s. `Fc1ccccc1-c1noc(Cc2nnc(-c3ccc(Cl)cc3)o2)n1` displayed an RP-LC retention time of 1100 s. `CCNC(=O)CCc1nc2ccccc2n(CC(=O)Nc2ccc(OCC)cc2)c1=O` had an RP-LC retention time of 775 s. With `O=C(NC(=O)N1CCN(Cc2ccccc2)CC1)c1ccccc1` the figure was 549 s. The molecule `O=C(CC1CCCC1)Nc1cnc(-c2cccnc2)nc1` displayed an RP-LC retention time of 689 s. To `COc1cc(C(=O)N(Cc2ccc(C(C)C)cc2)C2CCS(=O)(=O)C2)cc(OC)c1OC` (stereo not given) belongs 968 s; to `CCN1CCN(CCNC(=O)C2CN(C(=O)c3cccs3)CC23CCCCC3)CC1` (stereo not given), 589 s. `COc1ccc2[nH]cc(CCNC(=O)c3sc4ncccc4c3-n3cccc3)c2c1` yielded an RP-LC retention time of 932 s. To `CCCN(CC1CCOC1)C(=O)Nc1cc(C)ccc1C` (stereo not given) belongs 796 s; to `CC(C)Cc1csc(-c2csc(S(=O)(=O)NCc3ccc(F)cc3)c2)n1`, 1160 s. As for `O=C(Nc1cccnc1)c1c2c(nc3ccccc13)C(=O)N(C1CCCCC1)C2`, the RP-LC retention time came out at 669 s.

For `O=C(NCCOc1ccc(F)cc1)NCc1ccc(Cl)cc1`, the RP-LC retention time came out at 850 s. The molecule `O=C(CCn1c(=O)oc2ccccc21)Nc1ccc(S(=O)(=O)Nc2nccs2)cc1` gave an RP-LC retention time of 650 s.

Molecule `COc1ccc(-c2noc(Cc3nc(-c4ccc(C)c(C)c4)cs3)n2)cc1` showed an RP-LC retention time of 1310 s. `COC(=O)c1nnn(CC(=O)NCc2ccc3c(c2)OCO3)c1C(=O)OC` came in with an RP-LC retention time of 657 s.

The molecule `O=C(C1CCCO1)N1CCCN(Cc2nc(-c3ccc(Cl)cc3)no2)CC1` (stereo not given) came in with an RP-LC retention time of 706 s. To `Cn1cnc(S(=O)(=O)N2CCC3(CC2)N(c2ccccc2)C(=O)CS3=O)c1` (stereo not given) belongs 593 s; to `O=C(Cc1ccsc1)N1CCC([C@@H]2CNC[C@H]2CO)CC1`, 568 s; to `CCOc1ccc(C(=O)NC2(c3nc(C)no3)CCCCC2)cc1OCC`, 903 s. `O=C(c1nc2ccccn2c1-c1ccsc1)N1CCCCC1`: the RP-LC retention time amounted to 665 s. On to `Cc1nc(-c2ccc3c(c2)CCN3C(=O)c2ccc3c(c2)OCO3)cs1`, for which the RP-LC retention time was 951 s. With `COc1ccc(OCC(=O)N2CCC(C(=O)NCCc3csc(-c4ccccc4)n3)CC2)cc1`, the RP-LC retention time amounted to 818 s. As to `Cc1cc(C(=O)Nc2nnc(CCSc3ccccc3)o2)on1`, the RP-LC retention time was 694 s. For the molecule `COc1ccc(CCC(=O)N2CCN(S(=O)(=O)c3cc4c5c(c3)CCC(=O)N5CCC4)CC2)cc1`, the RP-LC retention time turned out to be 768 s. Take `CCC(C)NC(=O)c1ccc2c(c1)Sc1ncccc1C(=O)N2C(C)C` (stereo not given): the RP-LC retention time came to 784 s. On to `O=C(Cc1ccccc1Cl)NC1CCN(c2cc(-c3ccc(F)cc3)[nH]n2)C1` (stereo not given), for which the RP-LC retention time is 775 s. `CCCCC(=O)Nc1nnc(SCc2nnc(-c3ccc4c(c3)OCO4)o2)s1` had an RP-LC retention time of 859 s. With `CC(C)CC(=O)N1C[C@H](c2nc(-c3ccccc3)no2)[C@@H](C)C1` the figure was 951 s; with `COc1ccc(OC)c(CNC(=O)c2cn3cc(C)ccc3n2)c1`, 694 s.

On to `Cc1nc(N2CCN(C(=O)c3ccccc3)CC2)c(C#N)c2c1COC(C)(C)C2`, for which the RP-LC retention time was found to be 941 s.

Turning to `CCc1nc(NCc2cccnc2)ncc1C(=O)O`, the RP-LC retention time was 560 s. With `COc1cccc(S(=O)(=O)N2CCN(c3cc(C)nc(NC4CCCCC4)n3)CC2)c1` the figure was 795 s; with `CCN(CC)S(=O)(=O)c1ccc(Cl)c(C(=O)NCc2ccccn2)c1`, 676 s. In the case of `CCCn1cc(C(=O)NCCCOCC)c(S(=O)(=O)N2CCN(c3ccc(Cl)cc3)CC2)n1`, the RP-LC retention time came to 1080 s.

As to `Cc1cccc(-c2noc(-c3nn(-c4ccc(Cl)cc4)ccc3=O)n2)c1`, the RP-LC retention time amounted to 1000 s. To `COc1ccc(C(=O)Nc2cnn(C)c(=O)c2N2CCCCC2)cc1` belongs 923 s; to `COc1ccc2[nH]cc(CCNC(=O)c3ccccc3NC(=O)C3=C(C)OCCS3)c2c1`, 938 s. With `COc1ccc(NS(=O)(=O)c2cc3n(c2)CCCN(C(C)C)C3=O)cc1Cl` the figure was 773 s; with `Cc1ccc(-c2ncc(C(=O)NCC3CCCCC3)c(-c3ccncc3)n2)cc1`, 992 s; with `COc1ccc(-c2c(C)noc2NC(C)=O)cc1S(=O)(=O)Nc1cccc(SC)c1`, 779 s. In turn, `CCOc1ccc(CNC(=O)c2cc3c(-c4cccs4)nn(-c4ccccc4)c3n2CC)cc1` gave an RP-LC retention time of 1240 s. In turn, `Cc1ccccc1Nc1c(-c2ccc(O)cc2)nc2ccc(Cl)cn12` yielded an RP-LC retention time of 710 s. Molecule `O=C(N1CCOCC1)C1(c2cc(-c3ccco3)on2)CC1` showed an RP-LC retention time of 673 s. With `CC(C)c1ccc(N2C(=O)CN(Cc3ccccc3)C3CS(=O)(=O)CC32)cc1` (stereo not given) the figure was 854 s; with `O=c1[nH]c(SCc2nnc(Nc3ccccc3)s2)nc2sc3c(c12)CCC3`, 801 s; with `Cc1ccc(N2CC(NC(=O)NCc3ccco3)CC2=O)cc1C` (stereo not given), 682 s. For the molecule `COc1ccc2cc(C(=O)N3CCC(CC(=O)NCCc4c[nH]c5ccc(Cl)cc45)CC3)[nH]c2c1`, the RP-LC retention time stood at 841 s. `COc1ccc(-c2nnc(-c3ccc(OC)c(S(=O)(=O)N4CCCCC4)c3)o2)cc1OC` had an RP-LC retention time of 922 s.

For the molecule `CN(C)CCNC(=O)C1CCN(c2nc3ccc(-c4ccccc4F)nc3s2)CC1`, the RP-LC retention time is 658 s.

As for `Cc1nn(-c2ccccc2)c(C)c1S(=O)(=O)N1CCC(C(=O)N2CCCC2)CC1`, the RP-LC retention time amounted to 786 s. To `O=S(=O)(c1cccc(F)c1)N1CCN(c2cnn3c(C4CC4)nnc3c2)CC1` belongs 626 s. With `Nc1nc(Cl)nc2c1ncn2[C@H]1C[C@H](O)[C@@H](CO)O1`, the RP-LC retention time was 593 s. `CCCCCNC(=O)c1ccc(Oc2nccnc2N2CCC(C)CC2)cc1` displayed an RP-LC retention time of 1220 s.
